According to patent publication US10646483B2, “Crystal form of imidazolone type compounds, and preparation method, pharmaceutical composition and use thereof” (Foreland Pharma Co., Ltd., priority 2016, dated 2020):
Like-named read-outs stand apart in the source and are kept apart here. One block for each molecule: values may come before it.

Key:
[1] = Test of dissolution rate in distilled water; assay type: physicochemical; settings: 3 mg in 1 ml distilled water, shaken at 20-25° C. for 5 seconds
Experimental: 3 mg each of Crystal Form VII, Crystal Form I, and Crystal Form VI, were weighed, and put into three 1 ml plastic centrifuge tubes, respectively. To each tube was added 1 ml of distilled water and shaken at 20-25° C. for 5 seconds.

[2] = Tableting stability test (XRPD before and after tableting); assay type: physicochemical; settings: manually tableted, 8 mm tablets, ground, FIG. 7
Source text: A small amount of Crystal Form I of Compound 1 hydrochloride monohydrate of Example 1 was taken and manually tableted to tablets with a diameter of 8 mm. The tablets were then gently ground. […] The XRPD patterns of the powders before and after the tableting of Crystal Form I were compared.

[3] = Metabolic experiments after oral (intragastric) administration to SD rats; assay type: in vivo; settings: 10 mg/kg; for AUC(0-inf) / AUC(0-t) / MRT / Tmax / Cmax / half-life: rat, po
Experimental: 11.392 mg of Crystal Form I of Compound 1 hydrochloride was suspended in […] of 0.5% sodium carboxymethylcellulose, mixed to form a homogenous suspension, and then sonicated for 2 min to give a homogenous suspension having a concentration of 2 mg/mL (the suspension present was prepared on the day of administration, and stored for no more than 4 hours). Three SD rats were intragastrically administered at a dose of 10 mg/kg body weight, and blood analysis was performed at the set time points.

[4] = Solid stability test of Crystal Form I (drug stability test box: high temperature, high humidity, strong illumination); assay type: physicochemical
Source text: A small amount of Crystal Form I of Compound 1 hydrochloride monohydrate of Example I-1 was taken and placed in a drug stability test box. The conditions were controlled as listed in Table 1 for the stability test. The results of the purities and the contents are listed in Table I-1, and the results of the crystal form tests are shown in FIGS. 4 to 6.

[5] = SD (Sprague-Dawley), blood, SD rat, Rat 1
[6] = SD (Sprague-Dawley), blood, SD rat, Rat 2
[7] = SD (Sprague-Dawley), blood, SD rats, Average of three rats
[8] = Active Pharmaceutical Ingredient, Initial
[9] = Illumination (4500 Lx ± 500 Lx), Day 5
[10] = Illumination (4500 Lx ± 500 Lx), Day 10
[11] = high temperature, high humidity and strong illumination, up to Day 10

- time to dissolve completely [1]: ≤ 0.00278 h
SMILES: Cn1cc(-c2ccc(-c3ccc4ncc5c(c4c3)n([C@H]3CC[C@@H](O)CC3)c(=O)n5C)cn2)cn1 [Crystal Form VII, 1-((1s,4s)-4-hydroxycyclohexyl)-3-methyl-8-(6-(1-methyl-1H-pyrazol-4-yl)pyridin-3-yl)-1H-imidazo[4,5-c]quinoline-2(3H)-one]

- effect of tableting process on crystal form (XRPD) [2]: did not change
- AUC(0-inf) [3, 5]: 247 µg·h/mL
- AUC(0-t) [3, 5]: 235 µg·h/mL
- MRT [3, 5]: 6.74 h
- Tmax [3, 5]: 2.8 h
- Cmax ([3]; SD (Sprague-Dawley), blood, SD rat, Rat 1, read-out: Cmax): 19000 ng/mL
- AUC(0-inf) [3, 6]: 192 µg·h/mL
- AUC(0-t) [3, 6]: 183 µg·h/mL
- MRT [3, 6]: 7.13 h
- Tmax [3, 6]: 4 h
- Cmax ([3]; SD (Sprague-Dawley), blood, SD rat, Rat 2, read-out: Cmax): 12100 ng/mL
- half-life ([3]; SD (Sprague-Dawley), blood, SD rat, Rat 2, read-out: t½ (converted)): 324 min
- half-life ([3]; SD (Sprague-Dawley), blood, SD rat, suspension in 0.5% sodium carboxymethylcellulose, Rat 1, read-out: t½ (converted)): 317 min
- AUC(0-inf) [3, 7]: 201 µg·h/mL
- AUC(0-t) [3, 7]: 191 µg·h/mL
- MRT [3, 7]: 6.84 h
- AUC Extr ([3]; SD rat, Rat 1): 4.72%
- AUC/D ([3]; SD rat, Rat 1): 11758 ng·kg·h/mg/mL
- AUC Extr ([3]; SD rat, Rat 2): 4.70%
- AUC/D ([3]; SD rat, Rat 2): 9171 ng·kg·h/mg/mL
- AUC Extr ([3]; SD rat, Rat 3): 5.96%
- AUC/D ([3]; SD rat, Rat 3): 7675 ng·kg·h/mg/mL
- AUC Extr ([3]; SD rats, Average of three rats): 5.13%
- AUC/D ([3]; SD rats, Average of three rats): 9535 ng·kg·h/mg/mL
- AUC(0-inf) ([3]; SD, plasma, SD rat, Rat 3): 163 µg·h/mL
- AUC(0-t) ([3]; SD, plasma, SD rat, Rat 3): 154 µg·h/mL
- MRT ([3]; SD, plasma, SD rat, Rat 3): 6.65 h
- Tmax ([3]; SD, plasma, SD rat, Rat 3): 2.5 h
- Cmax ([3]; SD, plasma, SD rat, Rat 3, read-out: Cmax): 12700 ng/mL
- half-life ([3]; SD, plasma, SD rat, Rat 3, read-out: t½ (converted)): 349 min
- Tmax ([3]; SD, plasma, SD rats, Average of three rats): 3.1 h
- Cmax ([3]; SD, plasma, SD rats, Average of three rats, read-out: Cmax): 14600 ng/mL
- half-life ([3]; SD, plasma, SD rats, Average of three rats, read-out: t½ (converted)): 330 min
- AUC(0-t) ([3]; SD, plasma, SD rats, average value): 191 µg·h/mL
- half-life ([3]; SD, plasma, SD rats, average value, read-out: half-life (converted)): 330 min
- Cmax ([3]; SD, plasma, SD rats, average value, read-out: maximum plasma concentration (Cmax)): 14600 ng/mL
- time to dissolve completely [1]: 5 h
- time to dissolve substantially [1]: 2 h
- Content % ([4]; 25° C./95% RH, Day 5): 100.86%
- Impurity % ([4]; 25° C./95% RH, Day 5): 0.72%
- Purity % ([4]; 25° C./95% RH, Day 5): 99.28%
- Content % ([4]; 25° C./95% RH, Day 10): 99.61%
- Impurity % ([4]; 25° C./95% RH, Day 10): 0.74%
- Purity % ([4]; 25° C./95% RH, Day 10): 99.26%
- Content % ([4]; 60° C., Day 5): 99.62%
- Impurity % ([4]; 60° C., Day 5): 0.73%
- Purity % ([4]; 60° C., Day 5): 99.27%
- Content % ([4]; 60° C., Day 10): 99.51%
- Impurity % ([4]; 60° C., Day 10): 0.79%
- Purity % ([4]; 60° C., Day 10): 99.21%
- Content % [4, 8]: 100.41%
- Impurity % [4, 8]: 0.74%
- Purity % [4, 8]: 99.26%
- Content % [4, 9]: 99.84%
- Impurity % [4, 9]: 0.93%
- Purity % [4, 9]: 99.07%
- Content % [4, 10]: 99.50%
- Impurity % [4, 10]: 0.87%
- Purity % [4, 10]: 99.13%
- crystal form (XRPD) after stability test ([4]; high temperature, high humidity and strong illumination (FIGS. 4 to 6)): remains unchanged
- fluctuation of the content [4, 11]: ≤ 1%
- fluctuation of the purity [4, 11]: ≤ 0.2%
SMILES: Cn1cc(-c2ccc(-c3ccc4ncc5c(c4c3)n([C@H]3CC[C@@H](O)CC3)c(=O)n5C)cn2)cn1 [Crystal Form I, 1-((1s,4s)-4-hydroxycyclohexyl)-3-methyl-8-(6-(1-methyl-1H-pyrazol-4-yl)pyridin-3-yl)-1H-imidazo[4,5-c]quinoline-2(3H)-one]

- time to dissolve completely [1]: > 5 h
SMILES: Cn1cc(-c2ccc(-c3ccc4ncc5c(c4c3)n([C@H]3CC[C@@H](O)CC3)c(=O)n5C)cn2)cn1 [Crystal Form VI, 1-((1s,4s)-4-hydroxycyclohexyl)-3-methyl-8-(6-(1-methyl-1H-pyrazol-4-yl)pyridin-3-yl)-1H-imidazo[4,5-c]quinoline-2(3H)-one]
